Results as given in PMC12078333, “Pharmacokinetic evaluation and bioavailability of KPT-335 (Verdinexor) in cats” (Frontiers in Veterinary Science, 2025).
“And” between values parts separate entries of the source, which are not always exact repeats. Equal entries are not always repeated. Where two headings read alike, the source gives them in different places.

Experiment: Pharmacokinetics study of KPT-335 in cats (i.v. injection, p.o. capsules and tablets; UPLC-MS/MS, non-compartmental analysis)
Type: in vivo
Conditions: for Plasma concentration: individual cats 1-6; for AUC(0-t) / Cmax: plasma
Experimental: In this study, a parallel trial design was employed, 42 adult domestic cats (21 males and 21 females), aged 1 to 2 years and weighing 2.5 ± 0.25 kg. Cats were grouped by random number, with half male and female in each group, and all cats were determined to be systemically healthy during an initial screening visit 1 week prior to the experiment. They were acclimatized to the laboratory environment for 7 days before the study commenced. During this period, they were kept in solitary cages with free access to water. Cats in the fasting group were deprived of food for 12 h prior to and 2 h following drug administration, while those in the feeding group were fed twice a day. Food and water sources were consistent throughout the trail. During and at the end of the experiment, we systematically assessed the adverse reactions by recording parameters such as body weight, behavior, and coat gloss in all test cats both before and after the trial. These observations were conducted to evaluate whether any adverse reactions occurred. All procedures were reviewed and approved by the Institutional Animal Care and Use Committee of China Agricultural University (11305-23-E-002).
The UPLC-MS/MS system utilized a UPLC 1290 (Agilent) paired with a Phenomenex Kinetex C18 column (50 mm × 2.1 mm, 2.6 μm) for separation at a flow rate of 0.3 mL/min. The chromatographic mobile phase comprised water (A) and acetonitrile (B), both containing 0.1% formic acid. The gradient elution program was as follows: from 0.5 to 2.5 min, 10 to 95% B; from 2.5 to 4.5 min, 95% B; from 4.5 to 4.6 min, 95 to 10% B; and from 4.6 to 6.0 min, 10% B. The injection volume was 2 μL.
For mass spectrometry, an Agilent 6,475-LC-TQ equipped with an electrospray ion source was used. Multiple Reaction Monitoring (MRM) was selected to quantify KPT-335 in the positive ion mode. The ion transitions monitored were m/z 443.1 → 334.0 and 443.1 → 110.1 for KPT-335, and m/z 444.1 → 334.0 for the internal standard (IS). The cone voltage and collision energy were optimized for KPT-335 and the IS individually, set at 160 V and 25 eV, respectively. The optimized parameters for the instrument included an ion source temperature of 350°C, solvent removal temperature of 320°C, capillary voltage of 3.0 kV, and a solvent gas flow rate of 300 L/h.
The method was developed based on prior research conducted in the laboratory ([16]) and validated in accordance with international guidelines ([17]). The calibration concentration range for KPT-335 spanned from 0.5 to 100 ng/mL, with a lower limit of quantification (LLOQ) set at 0.5 ng/mL. The squared correlation coefficient (R^2) values exceeded 0.999, indicating high linearity.
For sample preparation, 100 μL of plasma was mixed with 10 μL of internal standard (IS) and 900 μL of acetonitrile, followed by vortexing for 2 min. The mixture was then centrifuged at 13,400 × g at 4°C for 10 min. The supernatant was filtered through a 0.22 μm organic membrane, and the resulting sample was analyzed using UPLC-MS/MS.
Cats were divided into seven groups, with six cats in each group. In the intravenous (i.v.) group (Group 1), cats received an injection of KPT-335 at a dosage of 1 mg/kg body weight (BW), administered via a bolus through a venous infusion needle. For the oral (p.o.) administration, cats were given capsules in a fasting state at doses of 0.2 mg/kg BW (Group 2), 1 mg/kg BW (Group 3), and 2 mg/kg BW (Group 4). Additionally, tablets were administered at 1 mg/kg BW (fasting, Group 5), 1 mg/kg BW (Group 6), and 2 mg/kg BW (Group 7) in a feeding state, followed by 3 mL of water delivered with a syringe.
For the p.o. administration, blood samples of 1.5 mL were collected via the brachial cephalic vein prior to administration and at 0.167, 0.333, 0.5, 0.75, 1, 1.5, 2, 4, 6, 8, 12, 24, 32, and 48 h post-administration. […]

[1] = cats, i.v., Injection, 1 mg/kg BW
[2] = cats, p.o., Capsule, Fasting, 0.2 mg/kg BW
[3] = cats, p.o., Capsule, Fasting, 1 mg/kg BW
[4] = cats, p.o., Capsule, Fasting, 2 mg/kg BW
[5] = cats, p.o., Tablet, Fasting, 1 mg/kg BW
[6] = cats, p.o., Tablet, Feeding, 1 mg/kg BW

O=C(/C=C\n1cnc(-c2cc(C(F)(F)F)cc(C(F)(F)F)c2)n1)NNc1ccccn1 [KPT-335]
Plasma concentration (cats, i.v. 1 mg/kg BW, 1 h, 1 mg/kg, in ng/mL): 643.90 and 242.31 and 664.36 and 555.75 and 518.04 and 558.85 | Plasma concentration (cats, i.v. 1 mg/kg BW, 2 h, 1 mg/kg, in ng/mL): 490.02 and 194.67 and 604.45 and 427.47 and 433.50 and 495.92 | Plasma concentration (cats, i.v. 1 mg/kg BW, 4 h, 1 mg/kg, in ng/mL): 278.69 and 140.14 and 326.77 and 250.68 and 245.55 and 286.46 | Plasma concentration (cats, i.v. 1 mg/kg BW, 8 h, 1 mg/kg, in ng/mL): 92.64 and 60.90 and 157.56 and 64.79 and 88.37 and 110.98 | Plasma concentration (cats, i.v. 1 mg/kg BW, 12 h, 1 mg/kg, in ng/mL): 91.54 and 31.99 and 27.73 and 24.10 and 36.17 and 25.48 | Plasma concentration (cats, i.v. 1 mg/kg BW, 24 h, 1 mg/kg): 2.04 ng/mL and 1.82 ng/mL | Plasma concentration (cats, i.v. 1 mg/kg BW, 24 h, 1 mg/kg, in ng/mL): 11.88 and 15.46 and 18.84 and 11.18 | Plasma concentration (cats, i.v. 1 mg/kg BW, 32 h, 1 mg/kg): 2.52 and 2.36 and 9.45 and 1.34 and 8.61 and BLOQ | Plasma concentration (cats, i.v. 1 mg/kg BW, 48 h): BLOQ | AUC_%Extrap_obs [1]: 0.83 ± 0.69% | HL_Lambda_z [1]: 3.93 ± 0.84 h | reduction of absolute bioavailability when dosage is increased to 2 mg/kg BW (cats, p.o.): 15–25% | AUC_%Extrap_obs [2]: 7.53 ± 7.79% | HL_Lambda_z [2]: 7.04 ± 3.26 h | AUC_%Extrap_obs [3]: 0.47 ± 0.13% | HL_Lambda_z [3]: 5.37 ± 1.01 h | AUC_%Extrap_obs [4]: 0.75 ± 0.38% | HL_Lambda_z [4]: 6.78 ± 0.97 h | AUC_%Extrap_obs [5]: 0.82 ± 0.39% | HL_Lambda_z [5]: 5.76 ± 1.16 h | AUC_%Extrap_obs [6]: 0.92 ± 1.43% | HL_Lambda_z [6]: 4.20 ± 1.26 h | AUC_%Extrap_obs (cats, p.o., Tablet, Feeding, 2 mg/kg BW): 0.39 ± 0.24% | HL_Lambda_z (cats, p.o., Tablet, Feeding, 2 mg/kg BW, 2 mg/kg): 3.54 h and 3.54 ± 0.81 h | impact of feeding on the AUC (cats, tablet 1 mg/kg BW fasting vs feeding): minimal to no impact | Plasma concentration (cats, tablet p.o. 1 mg/kg BW after fasting, 48 h, 1 mg/kg): BLOQ | Plasma concentration (cats, tablet p.o. 1 mg/kg BW after feeding, 24 h, 1 mg/kg): BLOQ | Plasma concentration (cats, tablet p.o. 1 mg/kg BW after feeding, 32 h, 1 mg/kg): BLOQ | Plasma concentration (cats, tablet p.o. 1 mg/kg BW after feeding, 48 h, 1 mg/kg): BLOQ | Plasma concentration (cats, tablet p.o. 2 mg/kg BW after feeding, 32 h, 2 mg/kg): BLOQ | Plasma concentration (cats, tablet p.o. 2 mg/kg BW after feeding, 48 h): BLOQ | AUC(0-t) (female, iv, 1 mg/kg, female cats, i.v., Injection, 1 mg/kg BW, read-out: AUClast Value females): 3060 ± 193 ng·h/mL | Cmax (female, iv, 1 mg/kg, female cats, i.v., Injection, 1 mg/kg BW, read-out: Cmax Value females): 886 ± 54 ng/mL | AUC(0-t) (female, po, 0.2 mg/kg, female cats, p.o., Capsule, Fasting, 0.2 mg/kg BW, read-out: AUClast Value females): 244 ± 23.4 ng·h/mL | Cmax (female, po, 0.2 mg/kg, female cats, p.o., Capsule, Fasting, 0.2 mg/kg BW, read-out: Cmax Value females): 31.1 ± 11.2 ng/mL | AUC(0-t) (female, po, 1 mg/kg, female cats, p.o., Capsule, Fasting, 1 mg/kg BW, read-out: AUClast Value females): 1490 ± 292 ng·h/mL | Cmax (female, po, 1 mg/kg, female cats, p.o., Capsule, Fasting, 1 mg/kg BW, read-out: Cmax Value females): 284 ± 95.8 ng/mL | AUC(0-t) (female, po, 1 mg/kg, female cats, p.o., Tablet, Fasting, 1 mg/kg BW, read-out: AUClast Value females): 2480 ± 1160 ng·h/mL | Cmax (female, po, 1 mg/kg, female cats, p.o., Tablet, Fasting, 1 mg/kg BW, read-out: Cmax Value females): 220 ± 48.4 ng/mL | AUC(0-t) (female, po, 1 mg/kg, female cats, p.o., Tablet, Feeding, 1 mg/kg BW, read-out: AUClast Value females): 2660 ± 1870 ng·h/mL | Cmax (female, po, 1 mg/kg, female cats, p.o., Tablet, Feeding, 1 mg/kg BW, read-out: Cmax Value females): 467 ± 139 ng/mL | AUC(0-t) (female, po, 2 mg/kg, female cats, p.o., Capsule, Fasting, 2 mg/kg BW, read-out: AUClast Value females): 1830 ± 39.6 ng·h/mL | Cmax (female, po, 2 mg/kg, female cats, p.o., Capsule, Fasting, 2 mg/kg BW, read-out: Cmax Value females): 233 ± 52.4 ng/mL | AUC(0-t) (female, po, 2 mg/kg, female cats, p.o., Tablet, Feeding, 2 mg/kg BW, read-out: AUClast Value females): 2840 ± 1090 ng·h/mL | Cmax (female, po, 2 mg/kg, female cats, p.o., Tablet, Feeding, 2 mg/kg BW, read-out: Cmax Value females): 538 ± 150 ng/mL | AUC(0-t) (male, iv, 1 mg/kg, male cats, i.v., Injection, 1 mg/kg BW, read-out: AUClast Value males): 3290 ± 1300 ng·h/mL | Cmax (male, iv, 1 mg/kg, male cats, i.v., Injection, 1 mg/kg BW, read-out: Cmax Value males): 816 ± 443 ng/mL | AUC(0-t) (male, po, 0.2 mg/kg, male cats, p.o., Capsule, Fasting, 0.2 mg/kg BW, read-out: AUClast Value males): 312 ± 241 ng·h/mL | Cmax (male, po, 0.2 mg/kg, male cats, p.o., Capsule, Fasting, 0.2 mg/kg BW, read-out: Cmax Value males): 24.1 ± 6.3 ng/mL | AUC(0-t) (male, po, 1 mg/kg, male cats, p.o., Capsule, Fasting, 1 mg/kg BW, read-out: AUClast Value males): 1340 ± 704 ng·h/mL | Cmax (male, po, 1 mg/kg, male cats, p.o., Capsule, Fasting, 1 mg/kg BW, read-out: Cmax Value males): 237 ± 56.7 ng/mL | AUC(0-t) (male, po, 1 mg/kg, male cats, p.o., Tablet, Fasting, 1 mg/kg BW, read-out: AUClast Value males): 2340 ± 453 ng·h/mL | Cmax (male, po, 1 mg/kg, male cats, p.o., Tablet, Fasting, 1 mg/kg BW, read-out: Cmax Value males): 307 ± 183 ng/mL | AUC(0-t) (male, po, 1 mg/kg, male cats, p.o., Tablet, Feeding, 1 mg/kg BW, read-out: AUClast Value males): 1850 ± 11.1 ng·h/mL | Cmax (male, po, 1 mg/kg, male cats, p.o., Tablet, Feeding, 1 mg/kg BW, read-out: Cmax Value males): 261 ± 38.3 ng/mL | AUC(0-t) (male, po, 2 mg/kg, male cats, p.o., Capsule, Fasting, 2 mg/kg BW, read-out: AUClast Value males): 1850 ± 1290 ng·h/mL | Cmax (male, po, 2 mg/kg, male cats, p.o., Capsule, Fasting, 2 mg/kg BW, read-out: Cmax Value males): 328 ± 259 ng/mL | AUC(0-t) (male, po, 2 mg/kg, male cats, p.o., Tablet, Feeding, 2 mg/kg BW, read-out: AUClast Value males): 3160 ± 107 ng·h/mL | Cmax (male, po, 2 mg/kg, male cats, p.o., Tablet, Feeding, 2 mg/kg BW, read-out: Cmax Value males): 580 ± 56 ng/mL
